Biological target: MMP-13 (Homo sapiens, UniProt P45452)
Test: Assay for determining MMP-13 inhibition (fluorogenic substrate)
Assay type: biochemical
Details: Table 1, Summary of MMP-13 Activity for Compounds of Formula I; bounds only
Protocol: The MMP-13 inhibiting activity of the multicyclic bis-amide MMP-13 inhibiting compounds of the present invention may be measured using any suitable assay known in the art. A standard in vitro assay for MMP-13 inhibiting activity is described in Example 3000.
Assay for Determining MMP-13 Inhibition
The typical assay for MMP-13 activity is carried out in assay buffer comprised of 50 mM Tris, pH 7.5, 150 mM NaCl, 5 mM CaCl2 and 0.05% Brij-35. Different concentrations of tested compounds are prepared in assay buffer in 50 μL aliquots. 10 μL of 40 nM stock solution of MMP-13 enzyme is added to the compound solution. The mixture of enzyme and compound in assay buffer is thoroughly mixed and incubated for 20 minutes at room temperature. Upon the completion of incubation, the assay is started by addition of 40 μL of 12.5 μM stock solution of MMP-13 fluorogenic substrate (Calbiochem Cat. No. 444235). The time-dependent increase in fluorescence is measured at the 325 nm excitation and 393 nm emission by automatic plate multireader. The IC50 values are calculated from the initial reaction rates. Selectivity assays were run in a similar manner using MMP-1, MMP-14 and TACE.

Row | IC50 [nM] | SMILES
1 | > 5 | Cc1cc(CNC(=O)c2cc(C(=O)NC3CCc4cc(-c5nnn[nH]5)ccc43)ncn2)ccc1F (stereo not shown) [Ex. 1]
2 | > 5 | Cc1cc(CNC(=O)c2cc(C(=O)NC3CCCc4cc(-c5nnn[nH]5)ccc43)ncn2)ccc1F (stereo not shown) [Ex. 2301]
3 | > 5 | Cc1cc(CNC(=O)c2cc(C(=O)N[C@H]3CCc4cc(-c5nnn[nH]5)ccc43)ncn2)ccc1F [Ex. 2303]
4 | > 5 | COc1cccc(CNC(=O)c2cc(C(=O)N[C@H]3CCc4cc(-c5nnn[nH]5)ccc43)ncn2)c1 [Ex. 2308]
5 | < 5 | Cc1c(-c2nnn[nH]2)ccc2c1CC[C@@H]2NC(=O)c1cc(C(=O)NCc2ccc3c(c2)CN(c2c(N)c(=O)c2=O)CC3)ncn1 [Ex. 2328]
6 | < 5 | COc1cccc(CNC(=O)c2cc(C(=O)N[C@H]3CCc4cc(-c5noc(=O)[nH]5)ccc43)ncn2)c1 [Ex. 2407]
7 | < 5 | Cc1cc(CNC(=O)c2cc(C(=O)N[C@H]3CCc4c3ccc(C(=O)O)c4C)ncn2)ccc1F [Ex. 2522]
8 | < 5 | Cc1c(C(=O)O)ccc2c1CC[C@@H]2NC(=O)c1cc(C(=O)NCc2ccc3c(c2)CN(c2c(N)c(=O)c2=O)CC3)ncn1 [Ex. 2539]
9 | < 5 | COc1cc(CNC(=O)c2cc(C(=O)N[C@H]3CCc4c3ccc(C(=O)O)c4C)ncn2)ccc1F [Ex. 2562]
10 | < 5 | Cc1cc(CNC(=O)c2cc(C(=O)N[C@H]3CCc4cc(C(=O)O)ccc43)nc(N)n2)ccc1F [Ex. 2702]

— US20060173183A1, “Multicyclic bis-amide MMP inhibitors” (Alantos Pharmaceuticals, Inc.,, priority 2004, published 2006)
